Reference: ChEMBL document CHEMBL5505982, “Design, synthesis, biological evaluation and in silico studies of novel quinoline derivatives as potential radioprotective molecules targeting the TLR2 and p53 pathways” (Eur J Med Chem, 2024)
Activity calls are given as the source filed them. The calls are words filed in the database; no cut-off is given here.

How the values were obtained:
Mus musculus [1] = assay: (§1) Radioprotective activity against radiation-induced intestinal injury C57BL/6J mouse model assessed as increase in splenic index at 300 mg/kg, ip preincubated with compound for 15 to 1440 mins followed by irradiation with 13 Gy and measured after 84 hrs of radiation by H and E staining based analysis; format: functional, organism-based; settings: time 15-6480 min
AHH-1 [2] = assay: Induction of apoptosis in human AHH-1 cells assessed as late apoptotic cells preincubated with compound for 24 hrs followed by irradiation with 8 Gy and measured after 24 hrs of radiation by Annexin V-FITC/PI staining based flow cytometry analysis (reference value: 33.6%); format: functional; settings: time 48 hrs
Mus musculus [3] = assay: Radioprotective activity in irradiated C57BL/6J mouse model assessed as increase in RBC count at 300 mg/kg, ip preincubated with compound for 15 to 1440 mins followed by irradiation with 6.5 Gy and measured after 10 to 13 days of radiation; format: functional, organism-based; settings: Erythrocyte
AHH-1 [4] = assay: Induction of apoptosis in human AHH-1 cells assessed as necrotic cells preincubated with compound for 24 hrs followed by irradiation with 4 Gy and measured after 24 hrs of radiation by Annexin V-FITC/PI staining based flow cytometry analysis (reference value: 1.06%); format: functional; settings: time 48 hrs
Mus musculus [5] = assay: Radioprotective activity in irradiated C57BL/6J mouse model assessed as increase in WBC count at 300 mg/kg, ip preincubated with compound for 15 to 1440 mins followed by irradiation with 6.5 Gy and measured on day 1 (reference value: 43.39%); format: functional; settings: time 15-2880 min
Toll-like receptor 2 [6] = target: T1, Toll-like receptor 2 (Homo sapiens, UniProt O60603); assay: Binding affinity to TLR2 (unknown origin) assessed as dissociation constant by SPR analysis
AHH-1 [7] = assay: Induction of apoptosis in human AHH-1 cells assessed as viable cells preincubated with compound for 24 hrs followed by irradiation with 8 Gy and measured after 24 hrs of radiation by Annexin V-FITC/PI staining based flow cytometry analysis (reference value: 45.1%); format: functional; settings: time 48 hrs
Mus musculus [8] = assay: Radioprotective activity in irradiated C57BL/6J mouse model assessed as increase in WBC count at 300 mg/kg, ip preincubated with compound for 15 to 1440 mins followed by irradiation with 6.5 Gy and measured after 10 to 13 days of radiation relative to Ex-RAD/control; format: functional, organism-based
AHH-1 [9] = assay: Radioprotective activity against human AHH-1 cells assessed as decrease in p53 expression pretreated with compound for 24 hrs in presence of ionizing irradiation by Western blotting analysis; format: functional, cell-based
Mus musculus [10] = assay: Radioprotective activity in C57BL/6J mouse model assessed as upregulation of IL-6 expression at 300 mg/kg, ip measured after 2 hrs of 7.5 Gy radiation by ELISA analysis; format: functional, organism-based
Toll-like receptor 2 [11] = target: T1, Toll-like receptor 2; assay: Agonist activity at TLR2 in human HUVEC cells assessed as increase in p65 level pretreated with compound for 24 hrs in presence of ionizing irradiation by Western blotting analysis; format: cell-based; settings: filed as agonist
Mus musculus [12] = assay: Radioprotective activity against radiation-induced intestinal injury C57BL/6J mouse model assessed as increase in villi length at 300 mg/kg, ip preincubated with compound for 15 to 1440 mins followed by irradiation with 13 Gy and measured after 84 hrs of radiation by H and E staining based analysis; format: functional, organism-based; settings: time 15-6480 min
AHH-1 [13] = assay: Induction of apoptosis in human AHH-1 cells assessed as necrotic cells preincubated with compound for 24 hrs followed by irradiation with 8 Gy and measured after 24 hrs of radiation by Annexin V-FITC/PI staining based flow cytometry analysis (reference value: 4.86%); format: functional; settings: time 48 hrs
Mus musculus [14] = assay: Radioprotective activity in irradiated C57BL/6J mouse model assessed as increase in platelets count at 300 mg/kg, ip preincubated with compound for 15 to 1440 mins followed by irradiation with 6.5 Gy and measured after 3 to 10 days of radiation; format: functional, organism-based
AHH-1 [15] = assay: Induction of apoptosis in human AHH-1 cells assessed as late apoptotic cells preincubated with compound for 24 hrs followed by irradiation with 4 Gy and measured after 24 hrs of radiation by Annexin V-FITC/PI staining based flow cytometry analysis (reference value: 17.7%); format: functional; settings: time 48 hrs
Mus musculus [16] = assay: Radioprotective activity in C57BL/6J mouse assessed as increase in WBC count at 300 mg/kg, ip preincubated with compound for 15 to 1440 mins followed by irradiation at 6.5 Gy and measured at 1 to 10 days relative to Ex/RAD/control; format: functional, organism-based
AHH-1 [17] = assay: Induction of apoptosis in human AHH-1 cells assessed as early apoptotic cells preincubated with compound for 24 hrs followed by irradiation with 8 Gy and measured after 24 hrs of radiation by Annexin V-FITC/PI staining based flow cytometry analysis (reference value: 16.5%); format: functional; settings: time 48 hrs
AHH-1 [18] = assay: Induction of apoptosis in human AHH-1 cells assessed as viable cells preincubated with compound for 24 hrs followed by irradiation with 4 Gy and measured after 24 hrs of radiation by Annexin V-FITC/PI staining based flow cytometry analysis (reference value: 66.9 %); format: functional; settings: time 48 hrs
Mus musculus [19] = assay: Radioprotective activity in C57BL/6J mouse model assessed as upregulation of IL-12 expression at 300 mg/kg, ip measured after 2 hrs of 7.5 Gy radiation by ELISA analysis; format: functional, organism-based
AHH-1 [20] = assay: Induction of apoptosis in human AHH-1 cells assessed as necrotic cells preincubated with compound for 24 hrs followed by irradiation with 6 Gy and measured after 24 hrs of radiation by Annexin V-FITC/PI staining based flow cytometry analysis (reference value: 3.71%); format: functional; settings: time 48 hrs
Mus musculus [21] = assay: as §1, with “number of crypt foci” for “splenic index”; format: functional, organism-based; settings: time 15-6480 min
Mus musculus [22] = assay: Radioprotective activity in irradiated C57BL/6J mouse model assessed as increase in HGB count at 300 mg/kg, ip preincubated with compound for 15 to 1440 mins followed by irradiation with 6.5 Gy and measured after 13 days of radiation; format: functional, organism-based; settings: time 15-20160 min
Mus musculus [23] = assay: Radioprotective activity in irradiated C57BL/6J mouse model assessed as increase in HGB count at 300 mg/kg, ip preincubated with compound for 15 to 1440 mins followed by irradiation with 6.5 Gy and measured after 10 days of radiation relative to Ex-rad/control; format: functional, organism-based; settings: time 15-15840 min
Mus musculus [24] = assay: Radioprotective activity in C57BL/6J mouse assessed as increase in body weight at 30 mg/kg, ip preincubated with compound for 15 to 1440 mins followed by irradiation and measured after 10, 14, 18, 22 and 30 days; format: functional, organism-based; settings: time 15-44640 min
Mus musculus [25] = assay: Radioprotective activity in C57BL/6J mouse model assessed as upregulation of G-CSF expression at 300 mg/kg, ip measured after 2 hrs of 7.5 Gy radiation by ELISA analysis; format: functional, organism-based
Mus musculus [26] = assay: Radioprotective activity in irradiated C57BL/6J mouse model assessed as increase in platelets count at 300 mg/kg, ip preincubated with compound for 15 to 1440 mins followed by irradiation with 6.5 Gy and measured after 2 days of radiation; format: functional, organism-based; settings: time 15-4320 min
AHH-1 [27] = assay: Radioprotective activity against radiation-induced DNA damage in human AHH-1 cells assessed as reduction in gamma-H2AX foci in nucleus preincubated with compound for 24 hrs followed by irradiation with 1.175 Gy/min and measured after 2 hrs of radiation by fluorescence microscopic analysis; format: functional, cell-based; settings: time 26.0 hrs

T1 sequence (O60603 whole entry): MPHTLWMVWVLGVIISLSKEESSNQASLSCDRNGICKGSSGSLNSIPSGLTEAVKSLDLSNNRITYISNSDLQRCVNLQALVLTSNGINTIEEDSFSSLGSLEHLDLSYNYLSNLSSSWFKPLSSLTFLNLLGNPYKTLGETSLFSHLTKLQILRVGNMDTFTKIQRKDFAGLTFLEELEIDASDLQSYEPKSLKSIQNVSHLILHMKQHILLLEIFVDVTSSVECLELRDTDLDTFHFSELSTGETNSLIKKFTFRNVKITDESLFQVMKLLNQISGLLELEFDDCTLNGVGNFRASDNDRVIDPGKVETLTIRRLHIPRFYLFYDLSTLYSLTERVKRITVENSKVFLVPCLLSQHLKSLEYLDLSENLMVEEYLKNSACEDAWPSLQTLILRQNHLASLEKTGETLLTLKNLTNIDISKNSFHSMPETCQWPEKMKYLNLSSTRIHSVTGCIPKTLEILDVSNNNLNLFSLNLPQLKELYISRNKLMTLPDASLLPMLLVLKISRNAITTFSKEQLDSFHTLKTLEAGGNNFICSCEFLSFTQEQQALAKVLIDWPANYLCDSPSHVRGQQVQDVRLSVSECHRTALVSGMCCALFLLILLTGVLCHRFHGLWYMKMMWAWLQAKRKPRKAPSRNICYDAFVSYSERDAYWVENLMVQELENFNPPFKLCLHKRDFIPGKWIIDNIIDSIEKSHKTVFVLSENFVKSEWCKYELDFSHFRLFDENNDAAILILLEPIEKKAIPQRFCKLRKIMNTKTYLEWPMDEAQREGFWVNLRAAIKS

## [O-][S+](Cc1ccc(F)cc1)c1ccc2cc(Br)ccc2n1 (configuration not stated)
Mus musculus [1]
  Activity: Active
AHH-1 [2]
  Activity: 17.8%
Mus musculus [3]
  Activity: Active
AHH-1 [4]
  Activity: 1.4%
Mus musculus [5]
  Activity: 38.66%
Toll-like receptor 2 [6]
  Kd: 3.56 µM
AHH-1 [7]
  Activity: 67.3%
Mus musculus [8]
  Activity: Active
AHH-1 [9]
  Activity: Active
Mus musculus [10]
  Activity: Active
Toll-like receptor 2 [11]
  Activity: Active
Mus musculus [12]
  Activity: Active
AHH-1 [13]
  Activity: 4%
Mus musculus [14]
  Activity: inactive
AHH-1 [15]
  Activity: 12.2%
Mus musculus [16]
  Activity: Active
AHH-1 [17]
  Activity: 10.8%
AHH-1 [18]
  Activity: 72.4%
Mus musculus [19]
  Activity: Active
AHH-1 [20]
  Activity: 2.55%
Mus musculus [21]
  Activity: Active
Mus musculus [22]
  Activity: Active
Mus musculus [23]
  Activity: Active
Mus musculus [24]
  Activity: Active
Mus musculus [25]
  Activity: Active
Mus musculus [26]
  Activity: Active
AHH-1 [27]
  Activity: Active
